Patent publication US20240374600A1, “METHODS AND COMPOSITIONS FOR TREATING CANCER” (Onconova Therapeutics, Inc., priority 2021, published 2024)
Entries after “also recorded” stand apart in the source; their conditions may differ.

Tests used:
CDK17/cyclin Y = CDK17/cyclin Y (Homo sapiens, UniProt Q00537); assay: In vitro multi-kinase activity, IC50; assay type: biochemical
Excerpt: (§1) The study evaluates the IC50 values (in nM) of Compound 1 in comparison to FDA approved CDK 4/6 inhibitors Comparator 1, Comparator 2 and Comparator 3, which represent treatment advances for HR+ HER^2-metastatic breast cancer. IC50 value is a quantitative measure indicating the concentration needed to inhibit the listed kinase by 50%.

CDK7/cyclin H = CDK7/cyclin H (Homo sapiens, UniProt P50613); assay: In vitro multi-kinase activity, IC50; assay type: biochemical
Chain of CDK7/cyclin H (P50613 whole entry): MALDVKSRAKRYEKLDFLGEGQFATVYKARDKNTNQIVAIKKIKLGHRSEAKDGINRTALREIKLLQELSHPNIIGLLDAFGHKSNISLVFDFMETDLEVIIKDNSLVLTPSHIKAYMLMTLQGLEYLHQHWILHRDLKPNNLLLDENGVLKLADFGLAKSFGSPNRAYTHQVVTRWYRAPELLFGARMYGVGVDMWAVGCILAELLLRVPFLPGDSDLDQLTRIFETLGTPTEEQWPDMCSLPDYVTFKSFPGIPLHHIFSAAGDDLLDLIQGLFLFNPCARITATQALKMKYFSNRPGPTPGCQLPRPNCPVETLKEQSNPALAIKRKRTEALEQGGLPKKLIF
Chain of CDK7/cyclin H (P51946 whole entry partner): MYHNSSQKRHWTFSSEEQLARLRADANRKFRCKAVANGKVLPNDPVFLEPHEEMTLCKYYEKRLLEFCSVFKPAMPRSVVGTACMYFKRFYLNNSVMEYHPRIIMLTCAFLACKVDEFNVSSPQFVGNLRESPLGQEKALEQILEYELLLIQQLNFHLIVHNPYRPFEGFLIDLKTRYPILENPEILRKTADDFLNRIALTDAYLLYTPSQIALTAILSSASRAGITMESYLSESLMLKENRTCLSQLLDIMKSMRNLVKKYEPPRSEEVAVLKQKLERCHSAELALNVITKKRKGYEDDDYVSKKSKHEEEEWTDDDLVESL
Excerpt: as §1

CDK1/cyclin B = CDK1/cyclin B (Homo sapiens, UniProt P06493); assay: In vitro multi-kinase activity, IC50; assay type: biochemical
Chain of CDK1/cyclin B (P06493 whole entry): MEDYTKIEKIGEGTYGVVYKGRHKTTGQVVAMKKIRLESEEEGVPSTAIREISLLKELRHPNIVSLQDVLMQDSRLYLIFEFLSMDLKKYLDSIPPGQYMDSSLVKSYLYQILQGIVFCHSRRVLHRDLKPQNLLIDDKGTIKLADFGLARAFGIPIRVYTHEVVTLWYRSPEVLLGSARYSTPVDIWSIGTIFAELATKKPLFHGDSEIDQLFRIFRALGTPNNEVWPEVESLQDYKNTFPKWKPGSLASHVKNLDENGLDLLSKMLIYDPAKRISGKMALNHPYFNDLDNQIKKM
Chain of CDK1/cyclin B (P14635 whole entry partner): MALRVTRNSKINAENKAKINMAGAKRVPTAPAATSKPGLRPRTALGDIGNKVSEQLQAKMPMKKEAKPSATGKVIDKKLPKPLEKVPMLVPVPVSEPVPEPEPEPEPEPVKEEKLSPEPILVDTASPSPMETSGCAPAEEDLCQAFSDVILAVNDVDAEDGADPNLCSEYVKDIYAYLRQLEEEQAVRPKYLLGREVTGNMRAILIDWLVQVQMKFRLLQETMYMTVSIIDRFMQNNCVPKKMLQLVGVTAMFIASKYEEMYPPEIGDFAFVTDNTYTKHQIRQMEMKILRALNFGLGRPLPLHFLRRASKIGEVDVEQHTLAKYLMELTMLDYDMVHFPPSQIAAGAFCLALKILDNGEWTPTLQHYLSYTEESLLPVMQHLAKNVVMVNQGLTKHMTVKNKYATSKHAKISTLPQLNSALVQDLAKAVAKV
Excerpt: as §1

CSF1R = CSF1R (Homo sapiens, UniProt P07333); assay: In vitro multi-kinase activity, IC50; assay type: biochemical
Chain of CSF1R (P07333 20-972): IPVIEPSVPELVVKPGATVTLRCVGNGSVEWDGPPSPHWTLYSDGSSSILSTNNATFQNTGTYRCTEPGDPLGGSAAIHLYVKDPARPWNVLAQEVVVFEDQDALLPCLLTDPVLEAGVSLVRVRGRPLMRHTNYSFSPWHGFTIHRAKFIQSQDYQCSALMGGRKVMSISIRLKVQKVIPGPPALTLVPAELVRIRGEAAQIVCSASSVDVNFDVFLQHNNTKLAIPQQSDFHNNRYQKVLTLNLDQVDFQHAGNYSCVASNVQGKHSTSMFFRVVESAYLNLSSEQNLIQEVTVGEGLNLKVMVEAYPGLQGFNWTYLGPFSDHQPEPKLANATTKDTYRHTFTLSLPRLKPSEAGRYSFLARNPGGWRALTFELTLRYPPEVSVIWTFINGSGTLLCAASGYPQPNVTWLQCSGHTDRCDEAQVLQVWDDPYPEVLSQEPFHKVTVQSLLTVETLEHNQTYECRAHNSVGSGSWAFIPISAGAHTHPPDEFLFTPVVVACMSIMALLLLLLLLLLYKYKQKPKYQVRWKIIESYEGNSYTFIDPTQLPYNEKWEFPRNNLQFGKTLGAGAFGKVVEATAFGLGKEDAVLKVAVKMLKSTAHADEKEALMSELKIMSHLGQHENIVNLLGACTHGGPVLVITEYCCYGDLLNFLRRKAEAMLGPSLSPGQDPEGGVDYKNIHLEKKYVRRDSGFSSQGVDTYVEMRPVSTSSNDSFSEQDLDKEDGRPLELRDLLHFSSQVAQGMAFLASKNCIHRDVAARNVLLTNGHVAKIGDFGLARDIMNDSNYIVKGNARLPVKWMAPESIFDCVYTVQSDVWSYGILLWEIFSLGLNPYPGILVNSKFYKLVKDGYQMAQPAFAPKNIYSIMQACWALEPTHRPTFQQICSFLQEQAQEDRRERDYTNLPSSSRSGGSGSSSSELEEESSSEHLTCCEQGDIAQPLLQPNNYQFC
Excerpt: as §1

CDK16/cyclin Y = CDK16/cyclin Y (Homo sapiens, UniProt Q00536); assay: In vitro multi-kinase activity, IC50; assay type: biochemical
Chain of CDK16/cyclin Y (Q00536 whole entry): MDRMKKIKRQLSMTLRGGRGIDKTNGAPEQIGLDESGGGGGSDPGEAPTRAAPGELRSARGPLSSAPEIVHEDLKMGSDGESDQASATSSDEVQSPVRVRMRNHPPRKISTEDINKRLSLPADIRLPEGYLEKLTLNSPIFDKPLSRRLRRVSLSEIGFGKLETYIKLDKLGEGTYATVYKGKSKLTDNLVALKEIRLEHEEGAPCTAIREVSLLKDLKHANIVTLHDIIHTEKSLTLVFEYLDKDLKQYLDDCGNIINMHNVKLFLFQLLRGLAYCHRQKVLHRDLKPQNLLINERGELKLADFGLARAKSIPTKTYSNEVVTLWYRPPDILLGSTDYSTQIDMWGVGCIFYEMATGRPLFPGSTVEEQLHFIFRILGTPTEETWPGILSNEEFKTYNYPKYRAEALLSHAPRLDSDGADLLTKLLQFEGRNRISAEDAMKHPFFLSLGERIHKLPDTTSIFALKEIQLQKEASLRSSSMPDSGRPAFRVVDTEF
Chain of CDK16/cyclin Y (Q8ND76 whole entry partner): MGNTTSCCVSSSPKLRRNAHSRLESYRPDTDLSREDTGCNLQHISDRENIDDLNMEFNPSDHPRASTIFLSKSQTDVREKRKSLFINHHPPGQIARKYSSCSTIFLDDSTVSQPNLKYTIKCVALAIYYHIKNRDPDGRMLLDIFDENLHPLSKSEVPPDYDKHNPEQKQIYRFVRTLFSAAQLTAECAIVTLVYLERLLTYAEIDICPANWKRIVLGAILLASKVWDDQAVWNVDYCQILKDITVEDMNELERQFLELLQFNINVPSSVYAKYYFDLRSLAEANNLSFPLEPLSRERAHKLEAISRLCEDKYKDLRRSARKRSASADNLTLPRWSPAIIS
Excerpt: as §1

ARK 5/NUAK 1 = molecular target: T1, ARK 5/NUAK 1 (Homo sapiens, UniProt O60285); assay: In vitro multi-kinase activity, IC50; assay type: biochemical
T1 sequence (O60285 1-661): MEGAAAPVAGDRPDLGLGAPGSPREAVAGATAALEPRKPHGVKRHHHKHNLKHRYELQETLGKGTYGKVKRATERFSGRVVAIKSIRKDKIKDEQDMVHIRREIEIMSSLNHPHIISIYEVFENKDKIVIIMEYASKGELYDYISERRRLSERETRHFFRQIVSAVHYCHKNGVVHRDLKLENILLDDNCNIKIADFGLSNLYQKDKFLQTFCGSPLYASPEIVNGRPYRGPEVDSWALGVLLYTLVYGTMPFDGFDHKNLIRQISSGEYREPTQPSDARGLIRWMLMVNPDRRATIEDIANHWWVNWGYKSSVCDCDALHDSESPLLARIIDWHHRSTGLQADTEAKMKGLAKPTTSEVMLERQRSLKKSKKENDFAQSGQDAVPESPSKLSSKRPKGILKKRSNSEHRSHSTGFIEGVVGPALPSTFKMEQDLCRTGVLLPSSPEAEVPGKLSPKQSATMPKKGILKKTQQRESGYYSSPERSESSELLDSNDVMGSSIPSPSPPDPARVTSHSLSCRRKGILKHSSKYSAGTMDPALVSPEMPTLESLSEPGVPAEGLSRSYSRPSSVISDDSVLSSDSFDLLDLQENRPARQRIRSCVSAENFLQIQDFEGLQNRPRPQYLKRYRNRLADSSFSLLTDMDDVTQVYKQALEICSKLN
Excerpt: as §1

KIT = KIT (Homo sapiens, UniProt P10721); assay: In vitro multi-kinase activity, IC50; assay type: biochemical
Chain of KIT (P10721 26-976): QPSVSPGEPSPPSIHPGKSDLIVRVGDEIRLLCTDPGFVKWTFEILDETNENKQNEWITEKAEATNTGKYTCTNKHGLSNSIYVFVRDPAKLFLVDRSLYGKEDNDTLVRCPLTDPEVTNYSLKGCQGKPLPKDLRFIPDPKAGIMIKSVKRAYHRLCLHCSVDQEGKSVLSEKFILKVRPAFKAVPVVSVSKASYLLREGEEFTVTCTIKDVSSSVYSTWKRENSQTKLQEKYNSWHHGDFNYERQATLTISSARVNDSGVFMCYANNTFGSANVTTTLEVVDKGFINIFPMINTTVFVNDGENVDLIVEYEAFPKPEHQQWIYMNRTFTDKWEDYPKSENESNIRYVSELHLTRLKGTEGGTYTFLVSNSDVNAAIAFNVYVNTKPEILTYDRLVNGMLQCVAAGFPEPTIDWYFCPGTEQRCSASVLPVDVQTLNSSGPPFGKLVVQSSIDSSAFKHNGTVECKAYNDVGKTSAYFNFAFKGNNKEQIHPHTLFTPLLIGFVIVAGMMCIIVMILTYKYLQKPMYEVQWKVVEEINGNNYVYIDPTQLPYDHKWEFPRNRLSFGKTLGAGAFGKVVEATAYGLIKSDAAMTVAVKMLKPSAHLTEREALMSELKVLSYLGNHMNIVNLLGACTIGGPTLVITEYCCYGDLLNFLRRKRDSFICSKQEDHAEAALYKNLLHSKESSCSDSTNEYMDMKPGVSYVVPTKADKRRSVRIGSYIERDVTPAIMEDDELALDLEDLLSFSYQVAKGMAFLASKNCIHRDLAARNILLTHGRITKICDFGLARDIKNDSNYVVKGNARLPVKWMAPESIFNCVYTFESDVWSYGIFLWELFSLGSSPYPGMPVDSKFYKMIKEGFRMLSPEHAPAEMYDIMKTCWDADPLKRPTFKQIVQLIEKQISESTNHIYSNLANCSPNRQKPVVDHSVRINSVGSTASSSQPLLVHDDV
Excerpt: as §1

CDK6/cyclin D1 = CDK6/cyclin D1 (Homo sapiens, UniProt Q00534); assay: In vitro multi-kinase activity, IC50; assay type: biochemical
Chain of CDK6/cyclin D1 (Q00534 whole entry): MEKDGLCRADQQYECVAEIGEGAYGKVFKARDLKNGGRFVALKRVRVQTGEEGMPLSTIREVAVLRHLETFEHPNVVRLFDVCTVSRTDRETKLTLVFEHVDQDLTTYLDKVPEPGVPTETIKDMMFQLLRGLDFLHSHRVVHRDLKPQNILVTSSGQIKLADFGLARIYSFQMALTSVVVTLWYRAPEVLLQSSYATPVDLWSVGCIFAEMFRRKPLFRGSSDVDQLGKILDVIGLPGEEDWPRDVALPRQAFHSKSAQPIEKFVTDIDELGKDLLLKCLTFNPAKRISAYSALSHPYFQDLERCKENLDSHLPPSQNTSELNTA
Chain of CDK6/cyclin D1 (P24385 whole entry partner): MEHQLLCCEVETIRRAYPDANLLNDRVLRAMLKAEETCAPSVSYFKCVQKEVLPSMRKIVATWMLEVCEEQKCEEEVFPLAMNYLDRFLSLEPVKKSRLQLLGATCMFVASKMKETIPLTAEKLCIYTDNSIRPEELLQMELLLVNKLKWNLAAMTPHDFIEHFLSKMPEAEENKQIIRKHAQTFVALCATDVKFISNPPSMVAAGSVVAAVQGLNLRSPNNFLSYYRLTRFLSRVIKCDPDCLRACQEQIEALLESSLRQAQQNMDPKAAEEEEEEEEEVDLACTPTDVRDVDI
Excerpt: as §1

CDK4/cyclin D1 = CDK4/cyclin D1 (Homo sapiens, UniProt P11802); assay: In vitro multi-kinase activity, IC50; assay type: biochemical
Excerpt: as §1

CDK9/cyclinT1 = CDK9/cyclinT1 (Homo sapiens, UniProt P50750); assay: In vitro multi-kinase activity, IC50; assay type: biochemical
Excerpt: as §1

CDK2/cyclin E = CDK2/cyclin E (Homo sapiens, UniProt P24941); assay: In vitro multi-kinase activity, IC50; assay type: biochemical
Excerpt: as §1

[1] = Phase 1 dose-escalation study in patients with advanced cancer; assay type: in vivo, human
Experimental: The study is a phase 1 dose-escalation study of 8-cyclopentyl-2-((4-(4-methylpiperazin-1-yl)phenyl)amino)-7-oxo-7,8-dihydropyrido[2,3-d]pyrimidine-6-carbonitrile (Compound 1) in patients with advanced cancer. Patients are dosed daily in 28-day cycles with Compound 1 starting at 40 mg daily with dosages escalating 40 mg/day increments for each new cohort or only on days 1-21 of 28-day cycles. […] Adverse events reported are Grade 1 or 2 in severity and are predominantly gastrointestinal (GI) disorders.

kinases = assay: KinMap kinase inhibition profile (FIG. 1); details: compared to a kinase inhibitor that is not compound 1
[2] = Neutropenia in preclinical models (FIG. 2); assay type: in vivo; details: in comparison to Comparator 1

CN1CCN(c2ccc(Nc3ncc4cc(C#N)c(=O)n(C5CCCC5)c4n3)cc2)CC1 [Compound 1, 8-cyclopentyl-2-((4-(4-methylpiperazin-1-yl)phenyl)amino)-7-oxo-7,8-dihydropyrido[2,3-d]pyrimidine-6-carbonitrile]
IC50 (CDK17/cyclin Y): 14 nM | IC50 (CDK7/cyclin H): 3770 nM | IC50 (CDK1/cyclin B): 515 nM | IC50 (CSF1R): 0.7 nM | IC50 (CDK16/cyclin Y): 25 nM | IC50 (ARK 5/NUAK 1): 5 nM | IC50 (KIT): 8.5 nM | IC50 (CDK6/cyclin D1): 0.6 nM | IC50 (CDK4/cyclin D1): 2 nM | IC50 (CDK9/cyclinT1): 48 nM | IC50 (CDK2/cyclin E): 69 nM | dose-limiting toxicities ([1]; 200 mg/day cohort, oral, daily in 28-day cycles): No dose-limiting toxicities | severity of adverse events reported ([1]; predominantly gastrointestinal (GI) disorders): Grade 1 or 2 | inhibition profile by KinMap (kinases): wider inhibition profile | neutropenia [2]: reduced Neutropenia; also recorded: less neutropenia
